2 compounds from ChEMBL document CHEMBL1250444, “Nitric oxide activates TRP channels by cysteine S-nitrosylation” (Nat Chem Biol, 2006) can be followed below.

Assay [1] addresses T1, Short transient receptor potential channel 5 (Homo sapiens) (UniProt Q9UL62).
T1 sequence (whole entry): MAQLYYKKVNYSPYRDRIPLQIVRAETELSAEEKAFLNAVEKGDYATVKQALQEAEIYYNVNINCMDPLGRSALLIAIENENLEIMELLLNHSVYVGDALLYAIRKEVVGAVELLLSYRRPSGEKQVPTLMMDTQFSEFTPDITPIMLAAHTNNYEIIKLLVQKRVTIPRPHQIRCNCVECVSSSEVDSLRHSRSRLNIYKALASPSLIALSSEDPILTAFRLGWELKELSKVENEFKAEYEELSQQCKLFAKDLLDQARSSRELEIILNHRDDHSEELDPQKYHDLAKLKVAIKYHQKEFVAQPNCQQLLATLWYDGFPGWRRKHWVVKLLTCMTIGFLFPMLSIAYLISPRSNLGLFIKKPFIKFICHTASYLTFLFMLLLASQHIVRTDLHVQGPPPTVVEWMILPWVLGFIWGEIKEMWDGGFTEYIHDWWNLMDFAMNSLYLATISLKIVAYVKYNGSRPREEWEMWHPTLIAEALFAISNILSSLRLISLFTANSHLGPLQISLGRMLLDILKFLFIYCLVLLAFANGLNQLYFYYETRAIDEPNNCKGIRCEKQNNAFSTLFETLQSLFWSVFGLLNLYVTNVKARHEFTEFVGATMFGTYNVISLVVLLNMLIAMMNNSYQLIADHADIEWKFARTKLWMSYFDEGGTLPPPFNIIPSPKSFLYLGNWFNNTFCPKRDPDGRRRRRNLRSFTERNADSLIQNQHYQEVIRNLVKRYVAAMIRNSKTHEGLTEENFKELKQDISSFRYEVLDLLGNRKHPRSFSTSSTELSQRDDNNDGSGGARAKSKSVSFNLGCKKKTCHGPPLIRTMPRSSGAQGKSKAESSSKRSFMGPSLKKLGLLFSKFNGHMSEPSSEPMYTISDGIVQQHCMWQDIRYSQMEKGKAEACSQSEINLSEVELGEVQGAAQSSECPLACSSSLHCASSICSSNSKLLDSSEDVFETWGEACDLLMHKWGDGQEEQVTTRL
As to the kind of experiment: Induction of S-nitrosylation of TRPC5 in HEK cells assessed as increase in Ca2+ level from extracellular space at 300 uM. Format: cell-based. Conditions: HEK293.

Assay [2] deals with T1, Short transient receptor potential channel 5 (Homo sapiens). As to the kind of experiment: Induction of S-nitrosylation of TRPC5 in HEK cells assessed as inhibition of incorporation of DTNB-2Bio at 5 mM. Format: cell-based. Conditions: HEK293.
The target is the same in assay [3]. As to the kind of experiment: Induction of S-nitrosylation of TRPC5 in HEK cells assessed as inhibition of incorporation of DTNB-2Bio at 300 uM. To be noted: HEK293. Format: cell-based.
For assay [4], the target named is Transient receptor potential cation channel subfamily V member 1 (Rattus norvegicus) (UniProt O35433). As to the kind of experiment: Activation of rat TRPV1 expressed in HEK cells assessed as increase in Ca2+ level from extracellular space at 300 uM. The format is cell-based. To be noted: HEK293.
Assay [5] concerns HEK293. As to the kind of experiment: Induction of rat TRPV1 Cys616 mutant S-nitrosylation expressed in HEK cells assessed as increase in Ca2+ level from extracellular space at 0.1 to 1 mM. Format: cell-based.
The subject of assay [6] is HEK293. As to the kind of experiment: Induction of rat TRPV1 Cys621 mutant S-nitrosylation expressed in HEK cells assessed as increase in Ca2+ level from extracellular space at 0.1 to 1 mM. The format is cell-based.
Assay [7] concerns the target T1, Short transient receptor potential channel 5 (Homo sapiens). As to the kind of experiment: Activation of TRPC5 expressed in BAEC expressing dominant negative mutant of TRPC5 assessed as increase in Ca2+ level from extracellular space at 300 uM.
Assay [8] addresses Transient receptor potential cation channel subfamily M member 7 (Homo sapiens) (UniProt Q96QT4). The assay is described as follows: Induction of TRPM7 S-nitrosylation in HEK cells assessed as increase in Ca2+ level from extracellular space at 30 uM. The format is cell-based. To be noted: HEK293.
The target of assay [9] is T2, Transient receptor potential cation channel subfamily V member 3 (Homo sapiens) (UniProt Q8NET8).
T2 sequence (whole entry): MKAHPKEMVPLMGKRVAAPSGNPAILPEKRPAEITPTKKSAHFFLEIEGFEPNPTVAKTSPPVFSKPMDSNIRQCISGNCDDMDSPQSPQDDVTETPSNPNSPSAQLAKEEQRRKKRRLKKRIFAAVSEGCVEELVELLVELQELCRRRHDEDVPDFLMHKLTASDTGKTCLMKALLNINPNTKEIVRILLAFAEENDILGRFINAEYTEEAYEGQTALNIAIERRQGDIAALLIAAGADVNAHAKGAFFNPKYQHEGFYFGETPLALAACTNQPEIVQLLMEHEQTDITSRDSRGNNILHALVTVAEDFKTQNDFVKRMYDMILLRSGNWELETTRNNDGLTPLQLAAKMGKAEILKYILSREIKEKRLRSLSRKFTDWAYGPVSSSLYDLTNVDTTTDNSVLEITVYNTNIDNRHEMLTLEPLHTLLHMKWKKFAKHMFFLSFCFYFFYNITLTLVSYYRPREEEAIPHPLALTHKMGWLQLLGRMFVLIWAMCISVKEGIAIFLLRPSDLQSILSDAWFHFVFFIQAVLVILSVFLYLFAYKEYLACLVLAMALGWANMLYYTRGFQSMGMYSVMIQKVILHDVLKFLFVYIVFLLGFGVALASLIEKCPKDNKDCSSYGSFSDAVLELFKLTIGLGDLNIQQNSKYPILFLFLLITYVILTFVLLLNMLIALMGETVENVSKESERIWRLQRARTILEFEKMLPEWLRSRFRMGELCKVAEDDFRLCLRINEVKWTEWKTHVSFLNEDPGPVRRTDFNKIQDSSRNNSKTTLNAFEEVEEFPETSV
As to the kind of experiment: Activation of TRPV3 in HEK cells assessed as increase in Ca2+ level from extracellular space at 10 uM. The format is cell-based. Conditions: HEK293.

Each structure is given as a SMILES string. Active and inactive are the calls of the source. The calls are words filed in the database; no cut-off is given here.

Sequence of Transient receptor potential cation channel subfamily V member 1 (Rattus norvegicus) (O35433 whole entry): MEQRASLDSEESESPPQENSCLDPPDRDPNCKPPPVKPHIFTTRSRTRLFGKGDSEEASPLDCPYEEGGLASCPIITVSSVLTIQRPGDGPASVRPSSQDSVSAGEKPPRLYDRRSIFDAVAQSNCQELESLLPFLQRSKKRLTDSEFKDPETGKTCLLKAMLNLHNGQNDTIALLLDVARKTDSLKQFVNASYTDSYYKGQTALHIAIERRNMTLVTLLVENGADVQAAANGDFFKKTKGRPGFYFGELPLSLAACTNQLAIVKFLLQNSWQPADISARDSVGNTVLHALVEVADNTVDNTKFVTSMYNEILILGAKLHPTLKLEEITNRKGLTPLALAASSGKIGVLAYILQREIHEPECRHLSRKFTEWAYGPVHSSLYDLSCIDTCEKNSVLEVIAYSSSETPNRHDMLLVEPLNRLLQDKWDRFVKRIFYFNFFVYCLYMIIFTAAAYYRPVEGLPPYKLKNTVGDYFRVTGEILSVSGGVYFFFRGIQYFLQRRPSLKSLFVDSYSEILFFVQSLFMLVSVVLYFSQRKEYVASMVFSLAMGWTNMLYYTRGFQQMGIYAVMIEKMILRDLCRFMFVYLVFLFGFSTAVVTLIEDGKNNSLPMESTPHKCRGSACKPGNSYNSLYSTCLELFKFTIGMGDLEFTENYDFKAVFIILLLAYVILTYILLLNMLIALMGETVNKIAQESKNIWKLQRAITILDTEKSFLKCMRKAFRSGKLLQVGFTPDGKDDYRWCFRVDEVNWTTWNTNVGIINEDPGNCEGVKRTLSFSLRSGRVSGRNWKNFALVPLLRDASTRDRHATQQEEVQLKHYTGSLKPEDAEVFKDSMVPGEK
Sequence of Transient receptor potential cation channel subfamily M member 7 (Homo sapiens) (Q96QT4 whole entry): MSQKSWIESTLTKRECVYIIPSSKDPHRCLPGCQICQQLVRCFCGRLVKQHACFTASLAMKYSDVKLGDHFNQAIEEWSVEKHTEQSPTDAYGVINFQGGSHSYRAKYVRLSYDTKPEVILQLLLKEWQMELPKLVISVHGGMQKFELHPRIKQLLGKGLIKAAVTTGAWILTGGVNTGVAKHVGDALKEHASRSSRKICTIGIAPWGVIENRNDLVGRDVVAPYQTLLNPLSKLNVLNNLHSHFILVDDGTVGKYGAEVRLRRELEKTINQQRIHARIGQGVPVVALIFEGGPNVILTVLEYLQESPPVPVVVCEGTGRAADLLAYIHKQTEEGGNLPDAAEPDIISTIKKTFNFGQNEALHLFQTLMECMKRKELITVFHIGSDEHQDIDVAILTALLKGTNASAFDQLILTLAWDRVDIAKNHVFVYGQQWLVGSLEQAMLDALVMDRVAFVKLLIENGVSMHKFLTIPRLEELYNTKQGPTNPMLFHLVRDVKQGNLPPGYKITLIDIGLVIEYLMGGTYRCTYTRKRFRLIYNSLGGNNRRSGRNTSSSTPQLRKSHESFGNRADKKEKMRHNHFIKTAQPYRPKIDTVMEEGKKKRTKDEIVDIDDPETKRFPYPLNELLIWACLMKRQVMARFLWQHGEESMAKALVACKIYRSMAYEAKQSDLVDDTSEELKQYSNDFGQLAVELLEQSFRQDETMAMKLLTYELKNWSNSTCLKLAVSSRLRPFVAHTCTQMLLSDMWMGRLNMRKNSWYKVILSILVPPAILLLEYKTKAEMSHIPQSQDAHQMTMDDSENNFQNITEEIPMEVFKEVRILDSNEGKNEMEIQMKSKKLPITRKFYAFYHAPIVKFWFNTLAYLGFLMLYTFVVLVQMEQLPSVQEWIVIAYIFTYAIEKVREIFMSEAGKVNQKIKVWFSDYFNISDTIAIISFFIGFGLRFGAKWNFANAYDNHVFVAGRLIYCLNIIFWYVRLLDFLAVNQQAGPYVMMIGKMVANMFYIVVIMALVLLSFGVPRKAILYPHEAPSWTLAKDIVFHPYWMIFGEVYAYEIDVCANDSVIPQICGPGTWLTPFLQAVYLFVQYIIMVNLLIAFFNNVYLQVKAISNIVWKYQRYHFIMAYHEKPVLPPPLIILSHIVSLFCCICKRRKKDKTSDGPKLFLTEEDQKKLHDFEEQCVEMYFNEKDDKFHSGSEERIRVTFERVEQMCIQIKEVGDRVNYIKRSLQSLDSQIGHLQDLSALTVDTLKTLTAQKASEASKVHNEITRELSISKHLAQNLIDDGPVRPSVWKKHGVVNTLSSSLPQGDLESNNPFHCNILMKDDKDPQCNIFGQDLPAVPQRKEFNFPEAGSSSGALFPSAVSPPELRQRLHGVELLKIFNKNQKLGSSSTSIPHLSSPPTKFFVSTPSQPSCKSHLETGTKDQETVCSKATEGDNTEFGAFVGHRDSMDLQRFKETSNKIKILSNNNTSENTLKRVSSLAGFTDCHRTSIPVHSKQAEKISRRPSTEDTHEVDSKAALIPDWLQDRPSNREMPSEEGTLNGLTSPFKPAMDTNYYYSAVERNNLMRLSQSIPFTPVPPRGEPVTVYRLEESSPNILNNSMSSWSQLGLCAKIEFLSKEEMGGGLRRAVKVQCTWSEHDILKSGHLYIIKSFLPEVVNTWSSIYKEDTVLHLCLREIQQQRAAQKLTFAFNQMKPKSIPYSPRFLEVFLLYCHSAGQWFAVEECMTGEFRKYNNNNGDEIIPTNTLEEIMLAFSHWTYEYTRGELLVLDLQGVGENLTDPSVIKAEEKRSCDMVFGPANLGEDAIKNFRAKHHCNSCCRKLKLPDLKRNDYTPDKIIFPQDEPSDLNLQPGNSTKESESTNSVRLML

`CC(=O)N[C@@H](C(=O)O)C(C)(C)SN=O` (racemic): the outcome in assay [1], in assay [2], in assay [3] and in assay [4] was Active. Further, the outcome (with HEK293 [5]; in the assay with HEK293 [6]; in assay [7]) was inactive.

With `O=[N+]([O-])c1ccc(SSc2ccc([N+](=O)[O-])cn2)nc1`, the result in [8] was inactive. Also, the result in assay [9] was Active.
